Test results reported in PubChem BioAssay AID330 (DTP/NCI, 2004).
Where “and” joins values, the source holds several entries; their conditions need not be identical. Equal values may be shown once. Toxic doses and inconclusive results are not listed. Rule for the calls: active = survival T/C of 150% or more; inactive = T/C below 125% in these data.

Test system: P388 leukemia ip, CD2F1 mice, survival T/C
Test: NCI In Vivo Anticancer Drug Screen. Data for tumor model P388 Leukemia (intraperitoneal) in CD2F1 (CDF1) mice
Conditions: endpoint: median survival time, higher = longer survival
Outline: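 Mice carrying the transplanted tumor received test compound or vehicle. Survival was recorded in each group, and the value is the treated-group measurement divided by that of the vehicle-treated control group.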

[1] = dose: 50.0 mg/kg/injection, schedule: Q01DX005 (ip), vehicle: Klucel (hydroxypropylcellulose) (HPC)
[2] = dose: 100.0 mg/kg/injection, schedule: Q01DX005 (ip), vehicle: Klucel (hydroxypropylcellulose) (HPC)
[3] = dose: 200.0 mg/kg/injection, schedule: Q01DX005 (ip), vehicle: Klucel (hydroxypropylcellulose) (HPC)
[4] = dose: 60.0 mg/kg/injection, schedule: Q01DX005 (ip), vehicle: saline with Tween-80
[5] = dose: 120.0 mg/kg/injection, schedule: Q01DX005 (ip), vehicle: saline with Tween-80
[6] = dose: 240.0 mg/kg/injection, schedule: Q01DX005 (ip), vehicle: saline with Tween-80
[7] = dose: 12.5 mg/kg/injection, schedule: Q01DX009 (ip), vehicle: saline
[8] = dose: 50.0 mg/kg/injection, schedule: Q01DX009 (ip), vehicle: saline
[9] = dose: 100.0 mg/kg/injection, schedule: Q04DX002 (ip), vehicle: saline with Tween-80
[10] = dose: 100.0 mg/kg/injection, schedule: Q01DX009 (ip), vehicle: saline
[11] = dose: 25.0 mg/kg/injection, schedule: Q01DX009 (ip), vehicle: suspension in saline
[12] = dose: 50.0 mg/kg/injection, schedule: Q01DX009 (ip), vehicle: suspension in saline
[13] = dose: 200.0 mg/kg/injection, schedule: Q01DX009 (ip), vehicle: saline
[14] = dose: 50.0 mg/kg/injection, schedule: Q01DX009 (ip), vehicle: Klucel (hydroxypropylcellulose) (HPC)

Measured: T/C

Cc1ccc(S(=O)(=O)NC(=O)NNC(=O)C(=O)Nc2ccc(F)cc2)cc1
inactive: [1] 100 % of control | [2] 90 % of control | [3] 90 % of control

CC(=O)OCC#CCN1CCCCC1
inactive: dose: 6.25 mg/kg/injection, schedule: Q01DX005 (ip), vehicle: saline 102 % of control | dose: 12.5 mg/kg/injection, schedule: Q01DX005 (ip), vehicle: saline 104 % of control | dose: 25.0 mg/kg/injection, schedule: Q01DX005 (ip), vehicle: saline 101 % of control

NCCCn1[nH]c(=O)c2cccnc2c1=O
inactive: [4] 101 % of control | [5] 100 % of control | [6] 95 % of control

CN(C)CCCNc1cc(/C=C/c2cccc3ccccc23)nc2ccccc12
inactive: [7] 91 % of control | dose: 25.0 mg/kg/injection, schedule: Q01DX009 (ip), vehicle: saline 92 % of control | [8] 92 % of control

COC(=O)C1(F)C(=O)NC(=O)NC1O (configuration not stated)
inactive: dose: 7.5 mg/kg/injection, schedule: Q01DX005 (ip), vehicle: saline 100 % of control | dose: 15.0 mg/kg/injection, schedule: Q01DX005 (ip), vehicle: saline 102 % of control | dose: 30.0 mg/kg/injection, schedule: Q01DX005 (ip), vehicle: saline 100 % of control

CC1CC(C)OC(C(C)(C)C)O1 (configuration not stated)
inactive: dose: 60.0 mg/kg/injection, schedule: Q01DX005 (ip), vehicle: saline 107 % of control | dose: 120.0 mg/kg/injection, schedule: Q01DX005 (ip), vehicle: saline 109 % of control | dose: 240.0 mg/kg/injection, schedule: Q01DX005 (ip), vehicle: saline 107 % of control

O=c1cccc(C(Cl)(Cl)Cl)o1
inactive: dose: 30.0 mg/kg/injection, schedule: Q01DX005 (ip), vehicle: saline + Tween-80 + alcohol 105 % of control | dose: 60.0 mg/kg/injection, schedule: Q01DX005 (ip), vehicle: saline + Tween-80 + alcohol 104 % of control and 105 % of control | dose: 120.0 mg/kg/injection, schedule: Q01DX005 (ip), vehicle: saline + Tween-80 + alcohol 105 % of control and 97 % of control

Cc1ccc(Cl)cc1S(=O)(=O)Cl
inactive: dose: 12.5 mg/kg/injection, schedule: Q01DX009 (ip), vehicle: distilled water + Tween-80 100 % of control | dose: 25.0 mg/kg/injection, schedule: Q01DX009 (ip), vehicle: distilled water + Tween-80 110 % of control

CCCCNC(=S)N/N=C/c1nc2ccccc2c(=O)n1-c1ccc(Br)cc1
inactive: [9] 98 % of control | dose: 200.0 mg/kg/injection, schedule: Q04DX002 (ip), vehicle: saline with Tween-80 89 % of control

COc1cc(O)c(C(C)c2ccccc2)cc1N=NC(N)=O (configuration not stated)
inactive: dose: 6.25 mg/kg/injection, schedule: Q01DX005 (ip), vehicle: saline with Tween-80 96 % of control | dose: 12.5 mg/kg/injection, schedule: Q01DX005 (ip), vehicle: saline with Tween-80 90 % of control | dose: 25.0 mg/kg/injection, schedule: Q01DX005 (ip), vehicle: saline with Tween-80 89 % of control

C=CCCC/C=C/CN1CCOCC1
inactive: [8] 103 % of control | [10] 105 % of control

S=C(NC1CCCCC1)NC1CCCCC1
inactive: dose: 100.0 mg/kg/injection, schedule: Q01DX009 (ip), vehicle: saline with Tween-80 90 % of control | dose: 100.0 mg/kg/injection, schedule: Q04DX003 (ip), vehicle: saline with Tween-80 95 % of control | dose: 200.0 mg/kg/injection, schedule: Q01DX009 (ip), vehicle: saline with Tween-80 90 % of control | dose: 200.0 mg/kg/injection, schedule: Q04DX003 (ip), vehicle: saline with Tween-80 90 % of control | dose: 400.0 mg/kg/injection, schedule: Q01DX009 (ip), vehicle: saline with Tween-80 86 % of control | dose: 400.0 mg/kg/injection, schedule: Q04DX003 (ip), vehicle: saline with Tween-80 90 % of control

c1cc2ccc1CSCCCSCc1ccc(cc1)CSCCCSC2
inactive: [11] 100 % of control | [12] 92 % of control | dose: 100.0 mg/kg/injection, schedule: Q01DX009 (ip), vehicle: suspension in saline 98 % of control

CN(C)C1=CC(=O)c2ccccc2C12CO2 (configuration not stated)
inactive: dose: 100.0 mg/kg/injection, schedule: Q01DX001 (ip), vehicle: saline with Tween-80 106 % of control | dose: 200.0 mg/kg/injection, schedule: Q01DX001 (ip), vehicle: saline with Tween-80 100 % of control

O=C1C2C(C(=O)N1c1ccccc1)C1(c3cccnc3)NC(=O)C2(Cc2cccnc2)c2ccccc21 (configuration not stated)
inactive: dose: 15.0 mg/kg/injection, schedule: Q01DX005 (ip), vehicle: saline with Tween-80 104 % of control | dose: 30.0 mg/kg/injection, schedule: Q01DX005 (ip), vehicle: saline with Tween-80 100 % of control and 96 % of control | [4] 104 % of control and 88 % of control and 91 % of control | [5] 88 % of control | [6] 86 % of control

O=C1NC(c2ccccc2)(c2ccccc2)C(=O)N1CNc1ccccn1
inactive: [4] 91 % of control | [5] 89 % of control | [6] 88 % of control

C1=CNc2ccccc2N=C1
inactive: [8] 103 % of control | [10] 112 % of control | [13] 99 % of control

N#Cc1c(N2CCOCC2)cc(-c2ccccc2)oc1=O
inactive: dose: 25.0 mg/kg/injection, schedule: Q04DX002 (ip), vehicle: saline with Tween-80 101 % of control | dose: 50.0 mg/kg/injection, schedule: Q04DX002 (ip), vehicle: saline with Tween-80 97 % of control | [9] 100 % of control

Nc1nnc(-c2ccccc2)s1
inactive: dose: 12.5 mg/kg/injection, schedule: Q01DX009 (ip), vehicle: Klucel (hydroxypropylcellulose) (HPC) 114 % of control | dose: 25.0 mg/kg/injection, schedule: Q01DX009 (ip), vehicle: Klucel (hydroxypropylcellulose) (HPC) 107 % of control | dose: 50.0 mg/kg/injection, schedule: Q01DX008 (ip), vehicle: Klucel (hydroxypropylcellulose) (HPC) 109 % of control | [14] 114 % of control | dose: 100.0 mg/kg/injection, schedule: Q01DX008 (ip), vehicle: Klucel (hydroxypropylcellulose) (HPC) 109 % of control | dose: 200.0 mg/kg/injection, schedule: Q01DX008 (ip), vehicle: Klucel (hydroxypropylcellulose) (HPC) 114 % of control

NCCN.NCCN.NCCN.[Cl-].[Pt]
inactive: dose: 1.56 mg/kg/injection, schedule: Q01DX009 (ip), vehicle: saline 101 % of control | dose: 3.13 mg/kg/injection, schedule: Q01DX009 (ip), vehicle: saline 101 % of control | dose: 6.25 mg/kg/injection, schedule: Q01DX009 (ip), vehicle: saline 107 % of control | [7] 99 % of control

O=C1OC(c2ccccc2Br)=N/C1=C/c1ccccc1
inactive: [1] 99 % of control | [2] 91 % of control | [3] 98 % of control

Cc1ccc(S(=O)(=O)/N=C2\CCN(S(=O)(=O)c3ccc(C)cc3)N2S(=O)(=O)c2ccc(C)cc2)cc1
inactive: [1] 97 % of control | [2] 94 % of control | [3] 97 % of control

Brc1ccc2c(c1)-c1ccccc1C1=NCCN12
inactive: dose: 5.0 mg/kg/injection, schedule: Q01DX009 (ip), vehicle: saline 100 % of control | dose: 5.0 mg/kg/injection, schedule: Q04DX003 (ip), vehicle: saline 100 % of control | dose: 10.0 mg/kg/injection, schedule: Q01DX009 (ip), vehicle: saline 100 % of control | dose: 10.0 mg/kg/injection, schedule: Q04DX003 (ip), vehicle: saline 100 % of control | dose: 20.0 mg/kg/injection, schedule: Q01DX009 (ip), vehicle: saline 95 % of control | dose: 20.0 mg/kg/injection, schedule: Q04DX003 (ip), vehicle: saline 100 % of control and 104 % of control

CN1NC(c2ccccc2)=C(C#N)C(=O)CC1c1ccccc1 (configuration not stated)
inactive: [4] 96 % of control | [5] 95 % of control | [6] 104 % of control

CC(C)(OC(=O)c1ccc([N+](=O)[O-])cc1)C(=O)O
inactive: [14] 99 % of control | dose: 100.0 mg/kg/injection, schedule: Q01DX009 (ip), vehicle: Klucel (hydroxypropylcellulose) (HPC) 98 % of control | dose: 200.0 mg/kg/injection, schedule: Q01DX009 (ip), vehicle: Klucel (hydroxypropylcellulose) (HPC) 98 % of control

Cc1ccc(S(=O)(=O)c2c(O)c3ccccc3c3nc4ccccc4nc23)cc1
inactive: [7] 90 % of control | dose: 12.5 mg/kg/injection, schedule: Q01DX009 (ip), vehicle: suspension in saline 88 % of control | [11] 90 % of control | [8] 89 % of control | [12] 88 % of control | [13] 91 % of control

Nc1nccc(C(=O)c2ccccc2O)n1
inactive: [8] 98 % of control | [10] 95 % of control | [13] 99 % of control
